{"source": "patent US10328084B2", "about": "“Pyrrolobenzodiazepines and targeted conjugates” (priority 2011, dated 2019)", "assay_type_in_all_cases": "cell-based", "key": {"[1]": {"system": "786-O", "test": "in vitro cytotoxic activity, resazurin reduction assay, 786-O", "settings": "Homo sapiens, 786-0, 48 h, read-out: IC50 in pM following 48 hours treatment, 786-O", "method": "(§1) The in vitro cytotoxic activity of the selected antibody drug conjugate was assessed using a resazurin (Sigma, St. Louis, Mo., USA) reduction assay (reference: Doronina et al., Nature Biotechnology, 2003, 21, 778-784). The antibody drug conjugate was prepared as described above.\n(§2) For the 96-hour assay, cells cultured in log-phase growth were seeded for 24 h in 96-well plates containing 150 μL RPMI 1640 supplemented with 20% FBS. Serial dilutions of ADC in cell culture media were prepared at 4× working concentration; 50 μL of each dilution was added to the 96-well plates. Following addition of ADC, the cells were incubated with test articles for 4 days at 37° C. Resazurin was then added to each well to achieve a 50 μM final concentration, and the plates were incubated for an additional 4 hours at 37° C. The plates were then read for the extent of dye reduction on a Fusion HT plate reader (Packard Instruments, Meridien, Conn., USA) with excitation and emission wavelengths of 530 and 590 nm, respectively. The IC50 value, determined in triplicate, is defined here as the concentration that results in a 50% reduction in cell growth relative to untreated controls.\n(§3) Referring to the table below, the in vitro cytotoxicity of the ADC using the 96 hour assay is shown. […]"}, "[2]": {"system": "Caki-1", "test": "in vitro cytotoxic activity, resazurin reduction assay, Caki-1", "settings": "Homo sapiens, CAKI-1, 48 h, read-out: IC50 in pM following 48 hours treatment, Caki-1", "method": "as §1, §2, §3"}, "[3]": {"system": "HL60", "test": "in vitro cytotoxic activity, HL60", "settings": "Homo sapiens, HL-60; HL60, 48 hours treatment, free PBD dimer; read-out: IC50 in pM following 48 hours treatment, HL60", "method": "as §1\nas §2, with “For the 96-hour assay, cells cultured in log-phase growth were seeded for 24 h in 96-well plates containing 150 μL RPMI 1640 supplemented with 20% FBS.” left out, “Following addition of ADC, the cells were incubated with test articles for 4 days at 37° C.” left out"}, "[4]": {"system": "HEL9217", "test": "in vitro cytotoxic activity, HEL9217", "settings": "Homo sapiens, HEL 92.1.7; HEL9217, 48 hours treatment, free PBD dimer; read-out: IC50 in pM following 48 hours treatment, HEL9217", "method": "as §1\nas §2, with “For the 96-hour assay, cells cultured in log-phase growth were seeded for 24 h in 96-well plates containing 150 μL RPMI 1640 supplemented with 20% FBS.” left out, “Following addition of ADC, the cells were incubated with test articles for 4 days at 37° C.” left out"}}, "data": [{"smiles": "COc1cc2c(cc1OCCCCCOc1cc3c(cc1OC)C(=O)N1C=C(c4ccc(OCCCN(C)C)cc4)C[C@H]1C=N3)N=C[C@@H]1CC(c3ccc(N)cc3)=CN1C2=O", "note": "[compound 17, (S)-2-(4-aminophenyl)-8-((5-(((S)-2-(4-(3-(dimethylamino)propoxy)phenyl)-7-methoxy-5-oxo-5,11a-dihydro-1H-benzo[e]pyrrolo[1,2-a][1,4]diazepin-8-yl)oxy)pentyl)oxy)-7-methoxy-1H-benzo[e]pyrrolo[1,2-a][1,4]diazepin-5(11 aH)-one]", "values": [{"measurement": "IC50", "setting": "[1]", "value": 7, "unit": "pM"}, {"measurement": "IC50", "setting": "[2]", "value": 2, "unit": "pM"}, {"measurement": "IC50", "setting": "[3]", "value": 3, "unit": "pM"}, {"measurement": "IC50", "setting": "[4]", "value": 2, "unit": "pM"}]}, {"smiles": "COCCOCCOCCOCCOc1ccc(C2=CN3C(=O)c4cc(OC)c(OCCCCCOc5cc6c(cc5OC)C(=O)N5C=C(c7ccc(N)cc7)C[C@@H]5C=N6)cc4N=C[C@H]3C2)cc1", "note": "[compound 23, (R)-2-(4-(2,5,8,11-tetraoxatridecan-13-yloxy)phenyl)-8-((5-(((R)-2-(4-aminophenyl)-7-methoxy-5-oxo-5,11a-dihydro-1H-benzo[e]pyrrolo[1,2-a][1,4]diazepin-8-yl)oxy)pentyl)oxy)-7-methoxy-1H-benzo[e]pyrrolo[1,2-a][1,4]diazepin-5(11aH)-one]", "values": [{"measurement": "IC50", "setting": "[1]", "value": 100, "unit": "pM"}, {"measurement": "IC50", "setting": "[2]", "value": 100, "unit": "pM"}, {"measurement": "IC50", "setting": "[3]", "value": 40, "unit": "pM"}, {"measurement": "IC50", "setting": "[4]", "value": 100, "unit": "pM"}]}]}
